Assay results: patent publication US20110039873A1, “SUBSTITUTED PYRAZOLO[1,5-a] PYRIDINE COMPOUNDS HAVING MULTI-TARGET ACTIVITY” (priority 2009, published 2011)
Where two headings read alike, the source gives them in different places.

Key:
[1] = target: T1, catalytic domain of phosphodiesterase 4B enzyme cloned from human brain (Homo sapiens, UniProt Q07343); test: PDE4 inhibition assay (PDELight); format: biochemical; details: 5 uM cAMP; read-out: PDE 4 Inhibition (IC50 in μM)
T1 construct: the catalytic domain of phosphodiesterase 4B enzyme; purchased Scottish Biomedical
T1 sequence (Q07343 330-659 limits assumed): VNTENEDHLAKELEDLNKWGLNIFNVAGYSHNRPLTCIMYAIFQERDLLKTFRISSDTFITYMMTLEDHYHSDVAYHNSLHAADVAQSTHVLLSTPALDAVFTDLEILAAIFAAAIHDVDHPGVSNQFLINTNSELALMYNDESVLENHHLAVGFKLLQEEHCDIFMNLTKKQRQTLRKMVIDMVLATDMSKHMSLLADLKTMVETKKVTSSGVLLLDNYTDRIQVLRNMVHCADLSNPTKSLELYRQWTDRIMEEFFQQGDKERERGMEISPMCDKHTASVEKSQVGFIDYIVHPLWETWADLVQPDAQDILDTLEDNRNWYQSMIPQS
In short: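 Human PDE4B catalytic domain (40 mU/well) incubated with 5 uM cAMP. AMP formed was converted to ATP and measured by luciferase luminescence (PDELight). IC50 derived by nonlinear regression curve fit.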

[2] = tested on: phosphorylated c-Jun (serine-73); test: Phosphorylated c-JUN (6-OHDA), SH-SY5Y; format: cell-based; details: Homo sapiens, 50 uM 6-hydroxydopamine, 1.5 hours, read-out: p-cJun 6-OHDA SH-SY5Y (EC50 in μM)
Procedure: Human SH-SY5Y neuroblastoma cells were cultured in 96-well plates with 2.5×10^4 cells/well and incubated for 48 hours. 6-hydroxydopamine was added at a concentration of 50 uM in the presence or absence of test compounds (0-30 uM) and incubated for 1.5 hours. Supernatant was discarded and cells were fixed with 4% paraformaldehyde (100 ul/well) for 20 minutes. FACE cell based ELISA assay (Active Motif) was performed specific for quantifying phosphorlyated c-Jun (serine-73).

[3] = tested on: at least one of JNK 3 or JNK 2 and at least one of PDE 10 or PDE 4; test: Dual inhibition (phosphodiesterase and JNK); format: biochemical, human; details: IC50 JNK 3 or JNK 2 less than about 5.00 μM and PDE 10 or PDE 4 less than about 20.0 or 30.0 μM
In short: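 JNK2/JNK3: full-length human enzyme with 3 uM ATF2 and 10 uM ATP for 1 h, ATP depletion by luciferase luminescence. PDE4B catalytic domain with 5 uM cAMP, or PDE10A1 with 1 uM cAMP, 1 h; AMP converted to ATP for luminescence. Compounds 0–30 uM; IC50 by nonlinear regression.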

JNK kinase = test: Amyloid beta-induced phosphorylation of JNK kinase (FIG. 2); format: cell-based; details: neuronal cells stimulated with Amyloid Beta, ELISA
Procedure: (§1) In 96-well plates either human SH-SY5Y neuroblastoma cells at 2.5×10^4 cells/well or E18 rat neuronal cells at 1.5×10^4 cells/well were seeded. To each well the following was added, Amyloid Beta peptide 1-25 (source) at a concentration of 30 uM, retinoic acid (10 uM) and test compounds (0-30 uM) and incubated for 3 hours. Supernatant was discarded and cells were fixed with 4% paraformaldehyde (100 ul/well) for 20 minutes. FACE cell based ELISA assay (Active Motif) was performed specific for quantifying phosphorlyated c-Jun (serine-73).
Neuronal cells were stimulated with Amyloid Beta, the Alzheimer's related peptide, resulting in phosphorylation of JNK kinase as measured by ELISA.

[4] = tested on: phosphorylated c-Jun (serine-73); test: Phosphorylated c-JUN (A-beta), SH-SY5Y; format: cell-based; details: Homo sapiens, Amyloid Beta peptide 30 uM, 3 hours, read-out: p-cJun Abeta SH-SY5Y (EC50 in μM)
Procedure: as §1, with “To each well the following was added, Amyloid Beta peptide 1-25 (source) at a concentration of 30 uM, retinoic acid (10 uM) and test compounds (0-30 uM) and incubated for 3 hours.” left out

[5] = target: T2, recombinant human phosphodiesterase 10A1 enzyme (Homo sapiens, UniProt Q9Y233); test: PDE10 inhibition assay (PDELight); format: biochemical; details: 1 uM cAMP; read-out: PDE 10 Inhibition (IC50 in μM)
T2 construct: purchased BPS Biosciences; host or cells: Baculovirus infected Sf9 cells
T2 sequence (Q9Y233 1-779 isoform Q9Y233-1): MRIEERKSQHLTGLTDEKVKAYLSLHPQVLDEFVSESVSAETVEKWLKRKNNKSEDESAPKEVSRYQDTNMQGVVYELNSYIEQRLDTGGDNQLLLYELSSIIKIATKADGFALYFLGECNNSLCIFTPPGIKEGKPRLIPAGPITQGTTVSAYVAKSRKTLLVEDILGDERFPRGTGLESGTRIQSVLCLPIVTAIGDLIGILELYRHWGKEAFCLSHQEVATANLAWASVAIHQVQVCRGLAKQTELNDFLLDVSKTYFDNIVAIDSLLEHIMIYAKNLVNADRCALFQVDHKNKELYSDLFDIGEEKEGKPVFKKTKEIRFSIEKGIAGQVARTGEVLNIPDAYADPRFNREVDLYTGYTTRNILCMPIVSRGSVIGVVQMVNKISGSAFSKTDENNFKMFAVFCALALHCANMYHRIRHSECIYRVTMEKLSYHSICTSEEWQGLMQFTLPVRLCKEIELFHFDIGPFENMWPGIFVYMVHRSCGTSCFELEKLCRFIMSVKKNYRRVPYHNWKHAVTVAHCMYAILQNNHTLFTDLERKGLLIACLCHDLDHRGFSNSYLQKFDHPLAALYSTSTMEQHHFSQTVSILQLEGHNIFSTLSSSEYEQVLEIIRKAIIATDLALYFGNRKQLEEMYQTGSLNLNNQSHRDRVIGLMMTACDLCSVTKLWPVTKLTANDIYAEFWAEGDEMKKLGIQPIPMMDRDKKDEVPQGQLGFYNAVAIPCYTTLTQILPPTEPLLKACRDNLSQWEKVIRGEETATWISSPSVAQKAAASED

[6] = Oral pharmacokinetic evaluation; format: in vivo, rat; details: male, rat, Sprague-Dawley rats, 15 mg/kg oral gavage, plasma
Procedure: Three male Sprague-Dawley rats were dosed orally via gavage with 15 mg/kg of test compound. Serial blood samples were collected from the jugular vein at 5, 15, and 30 min, 1, 3, and 6 hours post dosing. Samples were processed for plasma via centrifugation and plasma samples were stored frozen prior to analysis via a sensitive and specific HPLC/MS/MS method. PK parameters were calculated using WinNonLin (Pharsight).

[7] = target: T3, recombinant full length human JNK3 enzyme (Homo sapiens, UniProt P53779); test: JNK 3 inhibition assay (ATP depletion, luciferase); format: biochemical
T3 construct: recombinant full length human JNK2 or JNK3 enzyme; purchased Upstate; host or cells: Sf21 cells
T3 sequence (P53779 whole entry): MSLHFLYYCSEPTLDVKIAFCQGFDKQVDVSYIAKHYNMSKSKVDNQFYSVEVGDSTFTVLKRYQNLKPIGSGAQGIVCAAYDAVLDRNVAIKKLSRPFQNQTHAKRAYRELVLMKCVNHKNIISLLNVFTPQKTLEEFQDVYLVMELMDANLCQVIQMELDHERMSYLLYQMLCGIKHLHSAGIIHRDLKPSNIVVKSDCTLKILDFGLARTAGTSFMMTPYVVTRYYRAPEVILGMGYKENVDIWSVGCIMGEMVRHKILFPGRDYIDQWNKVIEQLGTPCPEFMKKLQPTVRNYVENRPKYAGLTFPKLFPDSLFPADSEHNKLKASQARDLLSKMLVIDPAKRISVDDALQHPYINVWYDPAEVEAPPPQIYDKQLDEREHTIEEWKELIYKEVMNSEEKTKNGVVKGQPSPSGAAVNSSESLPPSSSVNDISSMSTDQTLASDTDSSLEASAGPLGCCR
Procedure: In a 96-well plate, recombinant full length human JNK2 or JNK3 enzyme (40 ng) expressed in Sf21 cells (Upstate) was incubated with the substrate ATF2 (3 uM) for 1 hour in the presence of 10 uM ATP. […] The ATP levels were quantified using luciferase with luminescence read on a Victor Light 1420 luminometer. IC50 calculations were plotted using a nonlinear regression curve fit.

[8] = tested on: Mouse BV-2 microglial cells; test: BV-2 glial cell assay (TNF-α and MCP-1 by Luminex); format: cell-based; details: for EC50: Mus musculus, BV-2, LPS and IFN-γ activated, 20 hours
Procedure: Mouse BV-2 microglial cells were seeded on 96-well plates at a concentration of 3×10^4 cells/well. Cells were activated with 100 ng/mL LPS and IFN-γ (100 ng/mL) in the presence or absence of test compounds (0-30 uM). Following incubation for 20 hours, cells were spun down and supernatant collected. The supernatant was analyzed via Luminex for the presence of TNF-α and MCP-1.

**Q.** For `Cc1cccc2c(-c3ccnc(NC4CCCC4)n3)cnn12` [AV1184, N-cyclopentyl-4-(7-methylpyrazolo[1,5-a]pyridin-3-yl)pyrimidin-2-amine], which IC50 [1] is on record?
**A.** 15.5 µM

**Q.** What about the EC50 [2] of the same compound?
**A.** 0.7 µM

**Q.** What about the “dual inhibition (phosphodiesterase and JNK)” value [3] of the same compound?
**A.** effective dual inhibitors

**Q.** And the “inhibition of amyloid beta-induced phosphorylation of JNK kinase” value (JNK kinase)?
**A.** capable of inhibiting phosphorylation of JNK kinase in a dose-dependent manner

**Q.** What about the EC50 [4] of the same compound?
**A.** 8.3 µM

**Q.** And the IC50 [5]?
**A.** 32 µM

**Q.** What about the AUC(0-t) ([6]; read-out: Oral PK AUClast) of the same compound?
**A.** < 10 ng·h/mL

**Q.** And the Cmax ([6]; read-out: Oral PK Cmax)?
**A.** < 5 ng/mL

**Q.** And the IC50 ([7]; 10 uM ATP, ATF2 substrate)?
**A.** 0.4 µM

**Q.** What about the “JNK-3 inhibition (in words)” value ([7]; see Table 2) of the same compound?
**A.** particularly effective

**Q.** And the EC50 ([8]; read-out: MCP-1 BV-2 (EC50 in μM))?
**A.** 0.9 µM

**Q.** What about the EC50 ([8]; read-out: TNF-a BV-2 (EC50 in μM)) of the same compound?
**A.** 0.3 µM

**Q.** What about the “inhibiting glial cell activation (TNF-α and/or MCP-1)” value ([8]; Table 3) of the same compound?
**A.** Particularly effective
